ChEMBL document CHEMBL5365519, “Design and Characterization of 1,3-Dihydro-2H-benzo[d]azepin-2-ones as Rule-of-5 Compliant Bivalent BET Inhibitors” (ACS Med Chem Lett, 2023)
Converted amounts (≈) assume the structure as drawn.

What was measured:
C-C motif chemokine 2 [1] = biological target: T1, C-C motif chemokine 2 (Homo sapiens, UniProt P13500); test: Inhibition of MCP-1 in LPS-stimulated human whole blood pretreated with compound for 30 mins followed by LPS-stimulation and measured after 10 mins by microplate analysis; type: tissue-based
C-C motif chemokine 2 [2] = biological target: T1, C-C motif chemokine 2; test: Inhibition of MCP-1 in LPS-stimulated human PBMC cells pretreated with compound for 30 mins followed by LPS-stimulation and measured after 10 mins by microplate analysis; type: cell-based
[3] = biological target: T2, Bromodomain-containing protein 4 (Homo sapiens, UniProt O60885); test: Inhibition of BRD4 BD1 (unknown origin) by TR-FRET assay
[4] = biological target: T2, Bromodomain-containing protein 4; test: Inhibition of BRD4 BD2 (unknown origin) by TR-FRET assay
[5] = biological target: T2, Bromodomain-containing protein 4; test: Inhibition of histone binding to BRD4 (unknown origin) expressed in HEK293 cells using histone H3.3 as substrate incubated for 18 to 24 hrs by nano-BRET analysis; type: cell-based
[6] = biological target: T2, Bromodomain-containing protein 4; test: Inhibition of halo-tagged BRD4 (unknown origin) expressed in HEK293 cells incubated for 4 hrs by biosensor assay; type: cell-based
[7] = Lipophilicity, logD of compound at pH 7.4 by HPLC analysis; type: physicochemical; details: buffer
[8] = Solubility of compound in simulated lung fluid at pH 6.9; type: physicochemical
HL-60 = test: Antiproliferative activity against human HL-60 cells assessed as inhibition of cell growth incubated for 72 hrs by cell-titer glo assay; type: functional, cell-based; details: HL-60, 72 h
[9] = Antiproliferative activity against human NMC 11060 cell assessed as inhibition of cell growth incubated for 72 hrs by cell-titer glo assay; type: functional, cell-based; details: NMC 11060, 72 h
MV4-11 = test: Antiproliferative activity against human MV4-11 cells assessed as inhibition of cell growth incubated for 72 hrs by cell-titer glo assay; type: functional, cell-based; details: MV4-11, 72 h

T1 sequence (P13500 whole entry): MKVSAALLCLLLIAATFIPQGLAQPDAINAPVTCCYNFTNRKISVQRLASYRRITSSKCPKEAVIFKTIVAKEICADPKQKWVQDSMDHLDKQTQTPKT

Row | SMILES | IC50 (C-C motif chemokine 2 [1]) | IC50 (C-C motif chemokine 2 [2]) | IC50 [3] | IC50 [4] | IC50 [5] | EC50 [6] | logD [7] | pIC50 (C-C motif chemokine 2 [2]; pbmc) | solubility [8] | IC50 (HL-60) | IC50 [9] | IC50 (MV4-11)
1 | COCC(COC)n1c(-c2cc(C)c(=O)n(C)c2)nc2cc(N3CCOCC3)ccc21 | 25.1 nM | 7.94 nM |  |  |  |  |  |  |  |  |  | 
2 | C[C@H]1C(=O)N(C)C=Cc2cc(OCCOc3ccc4c(c3)C=CN(C)C(=O)[C@@H]4C)ccc21 | 126 nM | 0.251 nM | 63.1 nM | 31.6 nM | 0.631 nM | 1.26 nM | 5.8 |  |  |  |  | 
3 | C[C@@H]1C(=O)N(C)CCN1CCOc1ccc(C2CCN(c3ccc4nncn4n3)CC2)cc1 | 2000 nM | 200 nM | 25100 nM | 39800 nM | 398 nM | 1000 nM |  |  |  |  |  | 
4 | CC1C(=O)N(C)C=Cc2ccc(OCCCCCOc3ccc4c(c3)C(C)C(=O)N(C)C=C4)cc21 (configuration not stated) | 15800 nM |  | 631 nM | 3980 nM |  |  | 7.5 |  |  |  |  | 
5 | CC(=O)Nc1c(F)cc(C(=O)N[C@H]2CC[C@H](O)CC2)cc1O[C@@H](C)c1ccccc1 [GSK046] |  |  |  |  |  |  |  | 7.5 |  |  |  | 
6 | C[C@H]1C(=O)N(C)C=Cc2cc(OCCCOc3ccc4c(c3)C=CN(C)C(=O)[C@@H]4C)ccc21 | 50.1 nM | < 2 nM | 100 nM | 39.8 nM | 15.8 nM | 2.51 nM | 6.7 |  | < 1 µg/mL |  |  | 
7 | COc1nnc2ccc(N3CCC(c4ccc(OCCN5CCN(C)C(=O)[C@H]5C)cc4)CC3)nn12 [AZD-5153] | 15.8 nM | 3.16 nM | 398 nM | 3160 nM | 15.8 nM | 15.8 nM |  |  |  |  |  | 
8 | C[C@H]1C(=O)N(C)C=Cc2cc(OCCCCCCCOc3ccc4c(c3)C=CN(C)C(=O)[C@@H]4C)ccc21 | 79.4 nM | < 2 nM | 79.4 nM | 39.8 nM | 1 nM | 3.98 nM | 8.5 |  |  |  |  | 
9 | COCc1nc2cnc3cc(-c4c(C)noc4C)c(OC[C@H]4CCNC4)cc3c2n1[C@H](C)c1ccccc1 [GSK778] | 158 nM |  |  |  |  |  |  |  |  |  |  | 
10 | COc1cc2c(cc1-c1c(C)noc1C)ncc1[nH]c(=O)n([C@H](C)c3ccccn3)c12 | 200 nM | 39.8 nM |  |  |  |  |  |  |  | 126 nM | 631 nM | 
11 | Cc1sc2c(c1C)C(c1ccc(Cl)cc1)=N[C@@H](CC(=O)OC(C)(C)C)c1nnc(C)n1-2 | 631 nM | 6.31 nM |  |  |  |  |  |  |  |  |  | 
12 | C[C@H]1C(=O)N(C)C=Cc2cc(OCCCCOc3ccc4c(c3)C=CN(C)C(=O)[C@@H]4C)ccc21 | 5.01 nM | 0.0398 nM | 3.16 nM | 6.31 nM | 0.316 nM | 1.58 nM | 7.1 |  | 2 µg/mL (≈ 4.34 µM) | 0.398 nM | 0.794 nM | 0.501 nM
13 | CC1C(=O)N(C)C=Cc2ccc(OCCCCCCOc3ccc4c(c3)C(C)C(=O)N(C)C=C4)cc21 (configuration not stated) | 3980 nM |  | 3160 nM | ≥ 1580 nM | > 1000 nM | 1000 nM |  |  |  |  |  | 
14 | COc1cc2c(cc1OC)[C@@H](C)C(=O)N(C)C=C2 | 1000 nM | 50.1 nM |  |  |  |  |  |  |  |  |  | 
15 | C[C@H]1C(=O)N(C)C=Cc2cc(OCCCCCOc3ccc4c(c3)C=CN(C)C(=O)[C@@H]4C)ccc21 | 12.6 nM | < 2 nM | 39.8 nM | 20 nM | 0.631 nM | 7.94 nM | 7.4 |  | < 1 µg/mL |  |  | 
16 | C[C@H]1C(=O)N(C)C=Cc2cc(CN3CCN(Cc4ccc5c(c4)C=CN(C)C(=O)[C@@H]5C)CC3)ccc21 | 6.31 nM | < 0.2 nM | 15.8 nM | 25.1 nM | 0.501 nM | 2 nM | 5.43 |  | 465 µg/mL (≈ 959 µM) |  |  | 
